Test: wn = mass fraction of the nth substance listed
Details: 100 kPa, Liquid; for speed of sound: Frequency=3 MHz, Sing-around technique in a fixed-path interferometer; for mass density: Vibrating tube method

C1CC[C@H]2CCCC[C@@H]2C1 [trans-decahydronaphthalene] + c1ccc2c(c1)CCCC2
Details | mass density [kg/m3] | speed of sound [m/s]
293.15 K, w2 = 0.1003 | 878.7 | 1405
293.15 K, w2 = 0.2002 | 887.89 | 1412.5
293.15 K, w2 = 0.3 | 897.28 | 1420.5
293.15 K, w2 = 0.4002 | 906.9 | 1428.8
293.15 K, w2 = 0.5 | 916.67 | 1437.7
293.15 K, w2 = 0.6 | 926.69 | 1446.9
293.15 K, w2 = 0.7 | 936.89 | 1456.8
293.15 K, w2 = 0.8 | 947.32 | 1467
293.15 K, w2 = 0.8999 | 957.95 | 1477.9
303.15 K, w2 = 0.1003 | 871.18 | 1364.8
303.15 K, w2 = 0.2002 | 880.33 | 1372.4
303.15 K, w2 = 0.3 | 889.67 | 1380.5
303.15 K, w2 = 0.4002 | 899.23 | 1388.9
303.15 K, w2 = 0.5 | 908.96 | 1397.9
303.15 K, w2 = 0.6 | 918.92 | 1407.2
303.15 K, w2 = 0.7 | 929.09 | 1417.2
303.15 K, w2 = 0.8 | 939.47 | 1427.6
303.15 K, w2 = 0.8999 | 950.07 | 1438.6
313.15 K, w2 = 0.1003 | 863.68 | 1325.3
313.15 K, w2 = 0.2002 | 872.76 | 1333.1
313.15 K, w2 = 0.3 | 882.05 | 1341.3
313.15 K, w2 = 0.4002 | 891.55 | 1349.9
313.15 K, w2 = 0.5 | 901.24 | 1358.9
313.15 K, w2 = 0.6 | 911.15 | 1368.4
313.15 K, w2 = 0.7 | 921.27 | 1378.4
313.15 K, w2 = 0.8 | 931.61 | 1388.9
313.15 K, w2 = 0.8999 | 942.17 | 1400
323.15 K, w2 = 0.1003 | 856.15 | 1286.7
323.15 K, w2 = 0.2002 | 865.18 | 1294.5
323.15 K, w2 = 0.3 | 874.42 | 1302.8
323.15 K, w2 = 0.4002 | 883.87 | 1311.5
323.15 K, w2 = 0.5 | 893.51 | 1320.7
323.15 K, w2 = 0.6 | 903.37 | 1330.2
323.15 K, w2 = 0.7 | 913.45 | 1340.4
323.15 K, w2 = 0.8 | 923.75 | 1350.9
323.15 K, w2 = 0.8999 | 934.26 | 1362
333.15 K, w2 = 0.1003 | 848.6 | 1248.7
333.15 K, w2 = 0.2002 | 857.58 | 1256.7
333.15 K, w2 = 0.3 | 866.77 | 1265.1
333.15 K, w2 = 0.4002 | 876.17 | 1273.9
333.15 K, w2 = 0.5 | 885.76 | 1283.1
333.15 K, w2 = 0.6 | 895.58 | 1292.7
333.15 K, w2 = 0.7 | 905.62 | 1303
333.15 K, w2 = 0.8 | 915.87 | 1313.5
333.15 K, w2 = 0.8999 | 926.34 | 1324.8
343.15 K, w2 = 0.1003 | 841 | –
343.15 K, w2 = 0.2002 | 850 | –
343.15 K, w2 = 0.3 | 859.1 | –
343.15 K, w2 = 0.4002 | 868.3 | –
343.15 K, w2 = 0.5 | 878 | –
343.15 K, w2 = 0.6 | 887.9 | –
343.15 K, w2 = 0.7 | 897.7 | –
343.15 K, w2 = 0.8 | 907.9 | –
343.15 K, w2 = 0.8999 | 918.5 | –
353.1 K, w2 = 0.1003 | 833.2 | –
353.1 K, w2 = 0.2002 | 842.3 | –
353.1 K, w2 = 0.3 | 851.4 | –
353.1 K, w2 = 0.4002 | 860.6 | –
353.1 K, w2 = 0.5 | 870.2 | –
353.1 K, w2 = 0.6 | 880 | –
353.1 K, w2 = 0.7 | 889.8 | –
353.1 K, w2 = 0.8 | 900 | –
353.1 K, w2 = 0.8999 | 910.5 | –
363.1 K, w2 = 0.1003 | 825.5 | –
363.1 K, w2 = 0.2002 | 834.6 | –
363.1 K, w2 = 0.3 | 843.5 | –
363.1 K, w2 = 0.4002 | 852.8 | –
363.1 K, w2 = 0.5 | 862.3 | –
363.1 K, w2 = 0.6 | 872.1 | –
363.1 K, w2 = 0.7 | 881.8 | –
363.1 K, w2 = 0.8 | 892 | –
363.1 K, w2 = 0.8999 | 902.4 | –
373.1 K, w2 = 0.1003 | 817.9 | –
373.1 K, w2 = 0.2002 | 826.9 | –
373.1 K, w2 = 0.3 | 835.8 | –
373.1 K, w2 = 0.4002 | 844.9 | –
373.1 K, w2 = 0.5 | 854.5 | –
373.1 K, w2 = 0.6 | 864.2 | –
373.1 K, w2 = 0.7 | 874 | –
373.1 K, w2 = 0.8 | 883.9 | –
373.1 K, w2 = 0.8999 | 894.4 | –

From the NIST ThermoML archive (doi:10.1021/acs.jced.5b01075)
